Measurements from US20260258036A1, “INHIBITORS OF HUMAN ALDOSTERONE SYNTHASE (CYP11B2)” («TARGET MEDICALS» LIMITED LIABILITY COMPANY, priority 2022, published 2026).

Target: T1, recombinant CYP11B2 (Homo sapiens, UniProt P19099)
T1 sequence (P19099 25-503): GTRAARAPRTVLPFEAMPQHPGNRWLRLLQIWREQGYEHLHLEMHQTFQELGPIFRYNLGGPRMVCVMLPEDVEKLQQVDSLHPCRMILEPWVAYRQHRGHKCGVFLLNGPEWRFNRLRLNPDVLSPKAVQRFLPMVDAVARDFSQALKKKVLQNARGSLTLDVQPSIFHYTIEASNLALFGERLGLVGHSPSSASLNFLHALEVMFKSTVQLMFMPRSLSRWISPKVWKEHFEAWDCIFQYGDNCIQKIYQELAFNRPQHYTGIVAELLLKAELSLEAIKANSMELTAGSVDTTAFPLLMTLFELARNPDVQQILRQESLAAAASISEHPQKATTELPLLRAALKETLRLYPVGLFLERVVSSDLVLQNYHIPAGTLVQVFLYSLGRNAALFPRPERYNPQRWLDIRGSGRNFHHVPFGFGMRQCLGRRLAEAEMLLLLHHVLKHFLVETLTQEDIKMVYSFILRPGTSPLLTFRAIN
Assay: Inhibition of CYP11B2 activity in a reconstructed enzyme system (HPLC with UV detector)
Type: biochemical
Conditions: compounds 2_xx, 3_xx, 4_01, test compound final concentration ≤2 μM, corticosterone substrate, 30 minutes at 37° C.; for inhibition at 2 µM: read-out: Level of CYP11B2 activity inhibition
Method: The authors of the present invention investigated the activity of the compounds according to the invention as inhibitors of CYP11 B2 when analyzed in a reconstructed system containing 0.5 μm recombinant CYP1 1B2, 0.3 μm human adrenodoxin reductase, 2 μm human adrenodoxin, 100 μm corticosterone as a control reaction to detect the formation of a product with using an HPLC system with a UV detector. The test compound is added to the reaction mixture to a final concentration of ≤2 μM. The concentrated protein mixture was diluted with buffer to a final volume of 0.5 ml, pre-incubated for 10 min at 37° C., followed by the addition of the substrate. Reactions are initiated by adding NADPH (nicotinamide adenine dinucleotide phosphate) to a final concentration of 0.25 mM with a regenerating system (glucose-6-phosphate and glucose-6-phosphate dehydrogenase) in 25 mM potassium phosphate buffer, pH 7.4, containing 0.1 mM DTT (dithiothreitol), 0.1% Tween-20.4 mM MgCl2 and incubated at 37° C. After 30 minutes of incubation, the reaction is stopped by adding 5 ml of dichloromethane. The organic phase is isolated by centrifugation, evaporation, dissolution in ethanol and transferred to a vial for HPLC studies. A C18 Luna 100 Å 250×4, 6 mm column was used on an Agilent Technologies 1200 series instrument (USA) with ethanol as the mobile phase.
Activity (a) is calculated as the amount of product in nmol per minute per 1 nmol of CYP.
where k is the correction factor (k=1 is used as the molar extinction coefficients of steroid substrates and products similar at a detection wavelength of 254 nm), As is the peak area of the substrate, cs is the concentration of the substrate, Ap is the peak area of the product, ce is the concentration of CYP (cytochrome P450), t is the reaction time.
The level of inhibition of CYP11 B2 activity is expressed as a percentage, where 0% is defined as no inhibition in reactions without test compound and 100% is absolute inhibition by test compound.

| Structure (SMILES) | inhibition at 2 µM [%] | Level of CYP11B2 activity inhibition |
| --- | --- | --- |
| CN1CC2CC(C1)N2c1c(F)cc(S(=O)(=O)n2ccc3c(-c4ccccn4)cncc32)cc1F [Compound 3_18, 6-(2,6-difluoro-4-((4-(pyridin-2-yl)-1H-pyrrolo[2,3-c]pyridin-1-yl)sulfonyl)phenyl)-3-methyl-3,6-diazabicyclo[3.1.1]heptane] | 35 to 100 |  |
| CN1CC2CCC(C1)N2c1c(F)cc(S(=O)(=O)n2ccc3c(-c4ccccn4)cncc32)cc1F [Compound 3_19, 1-((3,5-difluoro-4-(3-methyl-3,8-diazabicyclo[3.2.1]octan-8-yl)phenyl)sulfonyl)-4-(pyridin-2-yl)-1H-pyrrolo[2,3-c]pyridine] | 35 to 100 |  |
| O=S(=O)(c1cc(F)c(N2CCN3CCC2C3)c(F)c1)n1ccc2c(-c3ccccn3)cncc21 (stereo not drawn) [Compound 3_20, 1-((4-(1,4-diazabicyclo[3.2.1]octan-4-yl)-3,5-difluorophenyl)sulfonyl)-4-(pyridin-2-yl)-1H-pyrrolo[2,3-c]pyridine] | 35 to 100 |  |
| O=S(=O)(c1cc(F)c(N2CC3(CNC3)C2)c(F)c1)n1ccc2c(-c3ccccn3)cncc21 [Compound 3_21, 1-((3,5-difluoro-4-(2,6-diazaspiro[3.3]heptan-2-yl)phenyl)sulfonyl)-4-(pyridin-2-yl)-1H-pyrrolo[2,3-c]pyridine] | 20 to 100 |  |
| CNc1cnc(-c2cncc3c2ccn3S(=O)(=O)c2cc(F)c(N3CC4CN(C)CC4C3)c(F)c2)cn1 (stereo not drawn) [Compound 3_22, 5-(1-((3,5-difluoro-4-(5-methylhexahydropyrrolo[3,4-c]pyrrol-2(1H)-yl)phenyl)sulfonyl)-1H-pyrrolo[2,3-c]pyridin-4-yl)-N-methylpyrazin-2-amine] | 35 to 100 |  |
| CN1CC2CN(c3c(F)cc(S(=O)(=O)n4ccc5c(-c6cnc(C#N)cn6)cncc54)cc3F)CC2C1 (stereo not drawn) [Compound 3_23, 5-(1-((3,5-difluoro-4-(5-methylhexahydropyrrolo[3,4-c]pyrrol-2(1H)-yl)phenyl)sulfonyl)-1H-pyrrolo[2,3-c]pyridin-4-yl)pyrazine-2-carbonitrile] | 35 to 100 |  |
| CN1CC2CN(c3c(F)cc(S(=O)(=O)n4ccc5c(-c6ccc(C#N)nc6)cncc54)cc3F)CC2C1 (stereo not drawn) [Compound 3_24, 5-(1-((3,5-difluoro-4-(5-methylhexahydropyrrolo[3,4-c]pyrrol-2(1H)-yl)phenyl)sulfonyl)-1H-pyrrolo[2,3-c]pyridin-4-yl)picolinonitrile] | 35 to 100 |  |
| O=S(=O)(c1cc(F)c(N2CC3CC2CN3)c(F)c1)n1ccc2c(-c3ccccn3)cncc21 (stereo not drawn) [Compound 3_25, 1-((4-(2,5-diazabicyclo[2.2.1]heptan-2-yl)-3,5-difluorophenyl)sulfonyl)-4-(pyridin-2-yl)-1H-pyrrolo[2,3-c]pyridine] | 35 to 100 |  |
| O=S(=O)(c1cc(F)c(N2C3CCC2CNC3)c(F)c1)n1ccc2c(-c3ccccn3)cncc21 [Compound 3_26, 1-((4-(3,8-diazabicyclo[3.2.1]octan-8-yl)-3,5-difluorophenyl)sulfonyl)-4-(pyridin-2-yl)-1H-pyrrolo[2,3-c]pyridine] | 35 to 100 |  |
| Cl.O=S(=O)(c1cc(F)c(N2CCNCC2)c(F)c1)n1ccc2c(-c3ccccn3)cncc21 [Compound 3_27, 1-((3,5-difluoro-4-(piperazin-1-yl)phenyl)sulfonyl)-4-(pyridin-2-yl)-1H-pyrrolo[2,3-c]pyridine] |  | ++ (inhibition of CYP11B2 activity in the range of 20-100% (++)) |
| N#Cc1ccc(-c2cncc3c2ccn3S(=O)(=O)c2cc(F)c(N3CC4CNCC4C3)c(F)c2)cn1 (stereo not drawn) [Compound 3_28, 5-(1-((3,5-difluoro-4-(hexahydropyrrolo[3,4-c]pyrrol-2(1H)-yl)phenyl)sulfonyl)-1H-pyrrolo[2,3-c]pyridin-4-yl)picolinonitrile] | 35 to 100 |  |
| CN1CCN(c2c(F)cc(S(=O)(=O)n3ccc4c(-c5ccccn5)cncc43)cc2F)CC1 [Compound 4_01, 1-((3,5-difluoro-4-(4-methylpiperazin-1-yl)phenyl)sulfonyl)-4-(pyridin-2-yl)-1H-pyrrolo[2,3-c]pyridine] | 35 to 100 |  |
